# Measurements from PubChem BioAssay AID1963832 (Molecular Pharmacology Branch, DTP, NCI, 2024).
# System: 885724-159-R-J1-PDC complex spheroid viability
# Assay: Anticancer human tumor 885724-159-R-J1-PDC patient-derived pancreatic adenocarcinoma cell line growth inhibition [POLQ]
# Conditions: for IC50: curve of first compound; for viability, T/C: stronger effect = lower value
# Outline: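 Growth inhibition in 3D: complex spheroids (tumor PDC, HUVEC, MSC) treated with POLQ inhibitor combinations; where Cmax unknown, highest tested concentration 10 microM, except SN-38 at 1 microM.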
# [1] = second compound 0.0316 µM, first compound 0.0316 µM
# [2] = second compound 0.0316 µM, first compound 0.1 µM
# [3] = second compound 0.0316 µM, first compound 0.316 µM
# [4] = second compound 0.0316 µM, first compound 1 µM
# [5] = second compound 0.0316 µM, first compound 3.16 µM
# [6] = second compound 0.0316 µM, first compound 10 µM
# [7] = second compound 0.1 µM, first compound 0.0316 µM
# [8] = second compound 0.1 µM, first compound 0.1 µM
# [9] = second compound 0.1 µM, first compound 0.316 µM
# [10] = second compound 0.1 µM, first compound 1 µM
# [11] = second compound 0.1 µM, first compound 3.16 µM
# [12] = second compound 0.1 µM, first compound 10 µM
# [13] = second compound 0.316 µM, first compound 0.0316 µM
# [14] = second compound 0.316 µM, first compound 0.1 µM
# [15] = second compound 0.316 µM, first compound 0.316 µM
# [16] = second compound 0.316 µM, first compound 1 µM
# [17] = second compound 0.316 µM, first compound 3.16 µM
# [18] = second compound 0.316 µM, first compound 10 µM
# [19] = second compound 1 µM, first compound 0.0316 µM
# [20] = second compound 1 µM, first compound 0.1 µM
# [21] = second compound 1 µM, first compound 0.316 µM
# [22] = second compound 1 µM, first compound 1 µM
# [23] = second compound 1 µM, first compound 3.16 µM
# [24] = second compound 1 µM, first compound 10 µM
# [25] = second compound 3.16 µM, first compound 0.0316 µM
# [26] = second compound 3.16 µM, first compound 0.1 µM
# [27] = second compound 3.16 µM, first compound 0.316 µM
# [28] = second compound 3.16 µM, first compound 1 µM
# [29] = second compound 3.16 µM, first compound 3.16 µM
# [30] = second compound 3.16 µM, first compound 10 µM
# [31] = second compound 10 µM, first compound 0.0316 µM
# [32] = second compound 10 µM, first compound 0.1 µM
# [33] = second compound 10 µM, first compound 0.316 µM
# [34] = second compound 10 µM, first compound 1 µM
# [35] = second compound 10 µM, first compound 3.16 µM
# [36] = second compound 10 µM, first compound 10 µM
# 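Note: spheroids exposed to compounds for 7 days.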
structure (smiles),measurement,setting,value
COc1cc(C2c3cc4c(cc3C(OC3OC5COC(C)OC5C(O)C3O)C3COC(=O)C23)OCO4)cc(OC)c1O (stereo not drawn) + Cc1cccc(N(C)C(=O)C2C(O)CCN2c2nc(C)cc(C(F)(F)F)c2C#N)c1,IC50,second compound 0.0316 µM,8.12 µM
same,IC50,second compound 0.1 µM,9.11 µM
same,IC50,second compound 0.316 µM,9.09 µM
same,IC50,second compound 1 µM,6.86 µM
same,IC50,second compound 3.16 µM,6.86 µM
same,IC50,second compound 10 µM,6.05 µM
same,"viability, T/C",[1],101%
same,"viability, T/C",[2],90.2%
same,"viability, T/C",[3],80.7%
same,"viability, T/C",[4],75%
same,"viability, T/C",[5],57.7%
same,"viability, T/C",[6],48.1%
same,"viability, T/C",[7],94.7%
same,"viability, T/C",[8],86.1%
same,"viability, T/C",[9],79.5%
same,"viability, T/C",[10],73.4%
same,"viability, T/C",[11],63.2%
same,"viability, T/C",[12],47.5%
same,"viability, T/C",[13],95.4%
same,"viability, T/C",[14],99.8%
same,"viability, T/C",[15],74.6%
same,"viability, T/C",[16],71%
same,"viability, T/C",[17],58.2%
same,"viability, T/C",[18],48.4%
same,"viability, T/C",[19],100%
same,"viability, T/C",[20],79.3%
same,"viability, T/C",[21],74%
same,"viability, T/C",[22],71%
same,"viability, T/C",[23],55.7%
same,"viability, T/C",[24],45.4%
same,"viability, T/C",[25],98.1%
same,"viability, T/C",[26],96.9%
same,"viability, T/C",[27],76.2%
same,"viability, T/C",[28],67.3%
same,"viability, T/C",[29],58.6%
same,"viability, T/C",[30],45.9%
same,"viability, T/C",[31],95.9%
same,"viability, T/C",[32],80%
same,"viability, T/C",[33],74.9%
same,"viability, T/C",[34],62.6%
same,"viability, T/C",[35],58.2%
same,"viability, T/C",[36],44.2%
CCc1c2c(nc3ccc(O)cc13)-c1cc3c(c(=O)n1C2)COC(=O)[C@]3(O)CC + COC1C(OC(N)=O)C(O)C(Oc2ccc3c(O)c(NC(=O)c4ccc(O)c(CC=C(C)C)c4)c(=O)oc3c2C)OC1(C)C,IC50,second compound 0.0316 µM,0.0422 µM
same,IC50,second compound 0.1 µM,0.0489 µM
same,IC50,second compound 0.316 µM,0.0383 µM
same,IC50,second compound 1 µM,0.0411 µM
same,IC50,second compound 3.16 µM,0.0353 µM
same,IC50,second compound 10 µM,0.0358 µM
same,"viability, T/C","second compound 0.0316 µM, first compound 0.00316 µM",66.3%
same,"viability, T/C","second compound 0.0316 µM, first compound 0.01 µM",58.3%
same,"viability, T/C",[1],44.8%
same,"viability, T/C",[2],47.9%
same,"viability, T/C",[3],29%
same,"viability, T/C",[4],5.01%
same,"viability, T/C","second compound 0.1 µM, first compound 0.00316 µM",73.1%
same,"viability, T/C","second compound 0.1 µM, first compound 0.01 µM",58.2%
same,"viability, T/C",[7],47.3%
same,"viability, T/C",[8],49.9%
same,"viability, T/C",[9],28.7%
same,"viability, T/C",[10],4.25%
same,"viability, T/C","second compound 0.316 µM, first compound 0.00316 µM",80.1%
same,"viability, T/C","second compound 0.316 µM, first compound 0.01 µM",54.3%
same,"viability, T/C",[13],48.6%
same,"viability, T/C",[14],45.7%
same,"viability, T/C",[15],30.9%
same,"viability, T/C",[16],5%
same,"viability, T/C","second compound 1 µM, first compound 0.00316 µM",75.9%
same,"viability, T/C","second compound 1 µM, first compound 0.01 µM",60.4%
same,"viability, T/C",[19],44.1%
same,"viability, T/C",[20],49.9%
same,"viability, T/C",[21],27.6%
same,"viability, T/C",[22],4.79%
same,"viability, T/C","second compound 3.16 µM, first compound 0.00316 µM",76.4%
same,"viability, T/C","second compound 3.16 µM, first compound 0.01 µM",59%
same,"viability, T/C",[25],45.1%
same,"viability, T/C",[26],44.3%
same,"viability, T/C",[27],30%
same,"viability, T/C",[28],4.76%
same,"viability, T/C","second compound 10 µM, first compound 0.00316 µM",68.7%
same,"viability, T/C","second compound 10 µM, first compound 0.01 µM",52.3%
same,"viability, T/C",[31],48.9%
same,"viability, T/C",[32],43.5%
same,"viability, T/C",[33],27.5%
same,"viability, T/C",[34],4.27%
C#Cc1c(F)ccc2cc(O)cc(-c3ncc4c(N5CC6CCC(C5)N6)nc(OCC56CCCN5CC(F)C6)nc4c3F)c12 (stereo not drawn) + Cc1cccc(N(C)C(=O)C2C(O)CCN2c2nc(C)cc(C(F)(F)F)c2C#N)c1,IC50,second compound 0.0316 µM,2.45 µM
same,IC50,second compound 0.1 µM,2.33 µM
same,IC50,second compound 0.316 µM,2.14 µM
same,IC50,second compound 1 µM,2.17 µM
same,IC50,second compound 3.16 µM,1.93 µM
same,IC50,second compound 10 µM,1.47 µM
same,"viability, T/C",[1],98.6%
same,"viability, T/C",[2],92.6%
same,"viability, T/C",[3],78.5%
same,"viability, T/C",[4],72%
same,"viability, T/C",[5],42.4%
same,"viability, T/C",[6],19.9%
same,"viability, T/C",[7],101%
same,"viability, T/C",[8],93.1%
same,"viability, T/C",[9],83.9%
same,"viability, T/C",[10],68.8%
same,"viability, T/C",[11],42.7%
same,"viability, T/C",[12],18.4%
same,"viability, T/C",[13],95.5%
same,"viability, T/C",[14],87.5%
same,"viability, T/C",[15],95.4%
same,"viability, T/C",[16],70%
same,"viability, T/C",[17],39.7%
same,"viability, T/C",[18],20.6%
same,"viability, T/C",[19],93.3%
same,"viability, T/C",[20],101%
same,"viability, T/C",[21],79.7%
same,"viability, T/C",[22],64.5%
same,"viability, T/C",[23],44.2%
same,"viability, T/C",[24],21.2%
same,"viability, T/C",[25],92.8%
same,"viability, T/C",[26],94.2%
same,"viability, T/C",[27],80.4%
same,"viability, T/C",[28],62.8%
same,"viability, T/C",[29],40.7%
same,"viability, T/C",[30],19%
same,"viability, T/C",[31],93.8%
same,"viability, T/C",[32],81%
same,"viability, T/C",[33],80.3%
same,"viability, T/C",[34],55.3%
same,"viability, T/C",[35],36.2%
same,"viability, T/C",[36],19.9%
COc1cc2cc(C(=O)CCC(=O)O)sc2cc1OC + Cc1cccc(N(C)C(=O)C2C(O)CCN2c2nc(C)cc(C(F)(F)F)c2C#N)c1,IC50,second compound 0.0316 µM,> 10 µM
same,IC50,second compound 0.1 µM,> 10 µM
same,IC50,second compound 0.316 µM,> 10 µM
same,IC50,second compound 1 µM,> 10 µM
same,IC50,second compound 3.16 µM,> 10 µM
same,IC50,second compound 10 µM,> 10 µM
same,"viability, T/C",[1],108%
same,"viability, T/C",[2],104%
same,"viability, T/C",[3],100%
same,"viability, T/C",[4],103%
same,"viability, T/C",[5],107%
same,"viability, T/C",[6],95.6%
same,"viability, T/C",[7],114%
same,"viability, T/C",[8],103%
same,"viability, T/C",[9],96.9%
same,"viability, T/C",[10],104%
same,"viability, T/C",[11],99.2%
same,"viability, T/C",[12],103%
same,"viability, T/C",[13],99.5%
same,"viability, T/C",[14],106%
same,"viability, T/C",[15],89.2%
same,"viability, T/C",[16],109%
same,"viability, T/C",[17],98.4%
same,"viability, T/C",[18],85.7%
same,"viability, T/C",[19],105%
same,"viability, T/C",[20],114%
same,"viability, T/C",[21],93.1%
same,"viability, T/C",[22],104%
same,"viability, T/C",[23],105%
same,"viability, T/C",[24],93.5%
same,"viability, T/C",[25],116%
same,"viability, T/C",[26],96.5%
same,"viability, T/C",[27],103%
same,"viability, T/C",[28],98%
same,"viability, T/C",[29],104%
same,"viability, T/C",[30],88.6%
same,"viability, T/C",[31],101%
same,"viability, T/C",[32],105%
same,"viability, T/C",[33],99.2%
same,"viability, T/C",[34],102%
same,"viability, T/C",[35],87.7%
same,"viability, T/C",[36],92.5%
